Source: patent publication US7332482B2, “Method for treating benign prostatic hyperplasia” (BioXell S.p.A., priority 2003, dated 2008)
Entries after “also recorded” stand apart in the source; their conditions may differ. Marks after values point to notes of the source that are not given here.

Tests used:
AR = target: T1, AR (Homo sapiens, UniProt P10275); assay: [3H]R1881 binding assay on cytosol fractions of BPH fragments; set-up: from tissue; host or cells: human BPH prostatic tissue, cytosol fraction
T1 sequence (P10275 1-920): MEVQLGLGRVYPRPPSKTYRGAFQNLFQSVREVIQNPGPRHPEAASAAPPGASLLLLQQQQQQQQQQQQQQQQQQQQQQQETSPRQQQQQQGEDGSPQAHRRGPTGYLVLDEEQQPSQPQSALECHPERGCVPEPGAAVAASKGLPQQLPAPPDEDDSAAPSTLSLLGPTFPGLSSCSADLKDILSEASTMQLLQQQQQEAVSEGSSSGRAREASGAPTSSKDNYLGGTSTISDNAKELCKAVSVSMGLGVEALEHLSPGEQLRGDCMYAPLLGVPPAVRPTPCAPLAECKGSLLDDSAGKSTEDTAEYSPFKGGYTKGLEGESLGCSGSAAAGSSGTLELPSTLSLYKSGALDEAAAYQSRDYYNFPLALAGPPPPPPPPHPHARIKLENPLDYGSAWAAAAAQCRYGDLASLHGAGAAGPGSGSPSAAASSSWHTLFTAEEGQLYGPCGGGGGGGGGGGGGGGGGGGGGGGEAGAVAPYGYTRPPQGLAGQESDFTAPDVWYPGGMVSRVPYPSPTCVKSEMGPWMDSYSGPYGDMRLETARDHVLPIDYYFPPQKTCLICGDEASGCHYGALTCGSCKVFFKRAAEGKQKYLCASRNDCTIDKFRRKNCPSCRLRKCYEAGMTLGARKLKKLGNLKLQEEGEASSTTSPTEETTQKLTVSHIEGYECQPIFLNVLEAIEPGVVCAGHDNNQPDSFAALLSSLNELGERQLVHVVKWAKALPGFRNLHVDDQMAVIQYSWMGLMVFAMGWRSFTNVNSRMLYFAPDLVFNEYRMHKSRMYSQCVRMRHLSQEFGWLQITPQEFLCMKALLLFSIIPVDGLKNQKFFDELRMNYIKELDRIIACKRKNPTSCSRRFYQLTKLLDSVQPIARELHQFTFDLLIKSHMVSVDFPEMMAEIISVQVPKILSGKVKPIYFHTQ
Experimental: Prostatic tissues for binding assay were obtained from patients who underwent suprapubic adenomectomy for BPH. No pharmacological treatment was performed in the 3 months preceding surgery. After surgery, the tissues were immediately placed in liquid nitrogen and stored at −80° C. until processing.
Protein content was determined by the known method of Bradford, using BSA as a standard.

BPH cells [1] = assay: BPH cell proliferation assay; format: cell-based, human; conditions: 48 h; for BPH cell proliferation increased by stimulus: T 10 nM or GF 10 ng/ml; for effect on DHT-stimulated BPH cell proliferation: DHT 10 nM; for effect on DHT-stimulated BPH cell proliferation / effect on T-stimulated BPH cell proliferation: Compound A 1 nM, F 1 nM, Cyp 100 nM; for effect on T-stimulated BPH cell proliferation: T 10 nM
Experimental: (§1) Human BPH cells, prepared, maintained and used as previously described in Crescioli C, et al. Journal of Clinical and Endocrinology Metabolism (2000) 85 p 2576-2583, were obtained from prostate tissues derived from 5 patients, who underwent suprapubic adenomectomy for BPH, after informed consent and approval by the Local Ethical Committee.
For all cell proliferation assay, 4×10^4 BPH cells were seeded onto 12-well plates in their growth medium, starved in red- and serum-free medium containing 0.1% BSA for 24 h, and then treated with specific stimuli for 48 h. Cells in phenol red- and serum-free medium containing 0.1% BSA were used as controls. Thereafter, cells were trypsinized, and each experimental point was derived from hemocytometer counting, averaging at least six different fields for each well, as previously reported (see Crescioli C, et al. Journal of Clinical and Endocrinology Metabolism (2000) 85 p 2576-2583). […] Growth assays were also carried out using a fixed concentration of androgens (10 nM) with or without Compound A (1 nM, 10 nM) or the anti-androgens finasteride (F, 1 nM) and cyproterone acetate (Cyp, 100 nM). Growth assays were also performed using a fixed concentration of T (10 nM) or GFs (10 ng/ml) with or without Compound A (10 nM). In the same experiment, each experimental point was repeated in triplicate or quadruplicate and experiments were performed 3 times. Results are expressed as % variation (mean±SEM) over the maximal T or GF-induced stimulation.

BPH cells [2] = assay: In situ end labeling (ISEL) of apoptotic BPH cells; format: cell-based, human; conditions: for change in percentage of apoptotic nuclei vs untreated cells: 48 h, Compound A 10 nM, T 10 nM, GFs 10 ng/ml
Experimental: as §1
ISEL was performed onto BPH cells using Apop Tag in situ apoptosis detection kit peroxydase following the manufacturer's instruction. Cells were incubated with T (10 nM), KGF (10 ng/ml) or Des(1-3)IGF-I (10 ng/ml) with or without Compound A (10 nM). The percentage of apoptotic cells (the number of stained cells divided by the total number of cells) was calculated in at least five separate fields per slide in five different slides. Results are expressed as mean±SEM from three separate experiments.

5α reductase type 1 = target: T2, 5α reductase type 1 (Homo sapiens, UniProt P18405); assay: 5α reductase inhibition test in CHO 1827 cells; format: cell-based; conditions: CHO cells transfected with type 1, n=3
T2 construct: host or cells: CHO 1827
T2 sequence (P18405 1-259): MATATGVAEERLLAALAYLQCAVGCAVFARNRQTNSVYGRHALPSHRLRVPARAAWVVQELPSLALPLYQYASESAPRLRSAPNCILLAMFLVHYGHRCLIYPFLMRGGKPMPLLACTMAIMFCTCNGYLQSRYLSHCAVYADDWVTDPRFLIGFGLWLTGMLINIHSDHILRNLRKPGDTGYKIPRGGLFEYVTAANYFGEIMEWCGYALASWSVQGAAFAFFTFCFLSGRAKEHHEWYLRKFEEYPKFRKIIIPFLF
Experimental: (§2) CHO-1827 and CHO-1829 cells, transfected with 5α reductase type 1 (5αR-1) or type 2 (5αR-2), respectively (see Steers W. Urology (2001) 58 p 17-24), were maintained in Ham's F12 medium supplemented with 5% FCS.
(§3) 5α reductase inhibition assay was performed using CHO 1827 cells, transfected with 5αR-1, or CHO 1829 cells, transfected with 5αR-2, as described (see Guarna A, et al. Journal of Medicinal Chemistry (2000) 43 3718-3735.). Compound A was added in a concentration range from 10^−9 to 10^−5 M, using finasteride as a control inhibitor in each experiment.

5α reductase type 2 = target: T3, 5α reductase type 2 (Homo sapiens, UniProt P31213); assay: 5α reductase inhibition test in CHO 1829 cells; format: cell-based; conditions: CHO cells transfected with type 2, n=3
T3 construct: host or cells: CHO 1829
T3 sequence (P31213 1-254): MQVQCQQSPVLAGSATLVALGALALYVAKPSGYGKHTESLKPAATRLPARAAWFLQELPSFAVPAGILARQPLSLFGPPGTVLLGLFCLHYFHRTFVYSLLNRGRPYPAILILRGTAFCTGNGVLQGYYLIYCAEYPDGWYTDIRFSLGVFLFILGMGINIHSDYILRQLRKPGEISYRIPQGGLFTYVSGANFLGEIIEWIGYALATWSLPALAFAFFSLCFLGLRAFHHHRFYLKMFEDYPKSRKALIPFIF
Experimental: as §2, §3

rat ventral prostate = assay: Clusterin expression (Northern, immunohistochemistry) and TUNEL in rat ventral prostate; format: in vivo; conditions: orchidectomized T-supplemented rats; Compound A 300 and 100 μg/Kg, F 40 mg/Kg
Experimental: Total RNA was extracted using RNAFast from Molecular System (San Diego, Calif.). Blotting, labelling, hybridization conditions and probes (rat clusterin 1.5 Kb full-length cDNA and GAPDH 1.2 Kb full-length cDNA) were performed according to the reported procedures (Bettuzzi et al, Biochemical Journal, (1989), 257, p 293-296 and Marinelli et al, Biochemistry and Cell Biology, (1994), 72, p 515-521). Quantitation of the autoradiograms was obtained by densitometric scanning using an LKB Ultrascan XL densitometer.
All the cryostatic sections obtained from controls and treated rats were processed in parallel as previously described (Astancolle et al, Journal of Endocrinology, (2000), 167, p 197-204). For every experimental condition, 3 alternate sections from 3 different rat prostates were examined. […] Counterstaining was performed with haematoxylin, and cover slips were mounted with Eukitt (O. Kindler GmbH & Co, Germany). Digital high-magnification colour images were acquired by a CCD camera through the microscope.
DNA fragmentation in prostate cryostatic sections, assessed by terminal deoxynucleotidyl transferase (TdT)-mediated dUTP nick end-labelling (TUNEL), was performed using the In Situ Cell Death Detection Kit (POD, Roche) as recommended by the manufacturer. TUNEL positive apoptotic nuclei were documented by digital high-magnification colour images acquired by a CCD camera through the microscope. Counterstaining was performed with eosin, and cover slips were mounted with Eukitt (O Kindler GmbH & Co, Germany).

Molecule	BPH cell proliferation increased by stimulus (BPH cells [1])	change in percentage of apoptotic nuclei vs untreated cells (BPH cells [2])	effect on DHT-stimulated BPH cell proliferation (BPH cells [1])	effect on T-stimulated BPH cell proliferation (BPH cells [1])	other results
C[C@]1(O)CC[C@H]2[C@@H]3CCC4=CC(=O)CCC4=C3C=C[C@@]21C [Compound R1881, reference compound]					competition for [3H]-R1881 binding (AR): completely displaced
C[C@]12CC[C@H]3[C@@H](CCC4=CC(=O)CC[C@@]43C)[C@@H]1CC[C@@H]2O [T, testosterone, reference compound]	156±8%	−27%			
CC(C)(C)NC(=O)[C@H]1CC[C@H]2[C@@H]3CC[C@H]4NC(=O)C=C[C@]4(C)[C@H]3CC[C@]12C [finasteride, 17β-(N,t-butyl)carbamoyl-4-aza-5α-androst-1-en-3-one, reference compound]			effective only against T	antagonized only T-induced cell growth; also recorded: effective only against T	IC50 (5α reductase type 1): 659 ± 100 nM; IC50 (5α reductase type 2): 53.7 ± 11 nM; clusterin mRNA expression in ventral prostate (Northern) (rat ventral prostate): partially blunted the T-induced down-regulation of clusterin gene expression
C=C1/C(=C\C=C2/CCC[C@]3(C)[C@@H]([C@H](C)CCCC(C)(C)O)CC[C@@H]23)C[C@@H](O)C[C@@H]1O [calcitriol, 1,25-dihydroxyvitamin D3, reference compound]					IC50 (BPH cells [1]; Homo sapiens, read-out: −log IC50, inhibition of BPH cell growth (converted)): 0.0631 nM; maximal inhibition (Imax) of BPH cell growth (BPH cells [1]; unstimulated BPH cells, Imax shared by both secosteroids): 43±1%
CC(=O)O[C@]1(C(C)=O)CC[C@H]2[C@@H]3C=C(Cl)C4=CC(=O)[C@@H]5C[C@@H]5[C@]4(C)[C@H]3CC[C@@]21C [cyproterone acetate, reference compound]			significantly blocked	significantly blocked	
KGF: Keratinocyte growth factor from Pepro Tech EC (protein, UniProt P21781 32-194, looked up) Fibroblast growth factor 7: CNDMTPEQMATNVNCSSPERHTRSYDYMEGGDIRVRRLFCRTQWYLRIDKRGKVKGTQEMKNNYNIMEIRTVAVGIVAIKGVESEFYLAMNKEGKLYAKKECNEDCNFKELILENHYNTYASAKWTHNGGEMFVALNQKGIPVRGKKTKKEQKTAHFLPMAIT	183±5%	−54%			Apoptotic index (%) (BPH cells [2]; GF 10 ng/ml or T 10 nM alone, ISEL): 8.5 ± 0.42^a %
